Like-named read-outs stand apart in the source and are kept apart here. Starred links: 1 amine or outer side, 2 acyl side, 3 side chain; linkers in the order of their positions; H or OH if unused. Residues, ends and D or L forms follow the SMILES beside them. Groups on a side chain read outwards from the residue. *: point of attachment. γGlu = O=C(O)[C@H](CCC(=O)[*:2])N[*:1]; C14 diacid = O=C(O)CCCCCCCCCCCCC(=O)*; AEEA = NCCOCCOCC(=O)O
Columns and labels:
[1] = molecular target: T1, human GLP-1 receptor (Homo sapiens, UniProt P43220); assay: In vitro potency, CRE luciferase reporter gene assay in BHK cells expressing the human GLP-1 receptor; assay type: cell-based; conditions: 3 h, 0% HSA, average of at least three replicates
T1 construct: expressed in transfected cells; host or cells: membranes of BHK cells (parent BHKTS13), clone FCW467-12A
T1 sequence (P43220 24-463): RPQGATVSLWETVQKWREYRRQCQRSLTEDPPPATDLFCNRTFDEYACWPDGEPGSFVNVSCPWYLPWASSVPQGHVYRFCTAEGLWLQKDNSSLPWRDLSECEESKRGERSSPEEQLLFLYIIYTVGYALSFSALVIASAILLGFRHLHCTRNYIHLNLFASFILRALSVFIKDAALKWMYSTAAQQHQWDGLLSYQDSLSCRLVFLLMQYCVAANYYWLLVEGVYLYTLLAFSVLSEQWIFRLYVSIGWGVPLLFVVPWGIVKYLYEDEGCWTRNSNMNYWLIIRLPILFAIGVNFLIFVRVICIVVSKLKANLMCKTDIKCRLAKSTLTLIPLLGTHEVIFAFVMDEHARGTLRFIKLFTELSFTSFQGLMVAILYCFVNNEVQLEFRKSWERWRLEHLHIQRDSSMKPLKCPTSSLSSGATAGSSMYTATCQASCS
Method: When assay incubation is completed the luciferase substrate (luciferin) is added and the enzyme converts luciferin to oxyluciferin to produce bioluminescence. The luminescence is measured as the readout for the assay.
The cells were cultured at 5% CO2 in cell culture medium. They were aliquoted and stored in liquid nitrogen. Before each assay an aliquot was taken up and washed twice in PBS before being suspended at the desired concentration in the assay specific buffer. For 96-well plates the suspension was made to give a final concentration of 5×10^3 cells/well.
Assay medium consisted of DMEM w/o phenol red, 10 mM Hepes and 1× Glutamax. The assay buffer consisted of 2% w/v ovalbumin and 0.2% v/v Pluronic F-68 in assay medium.
3) Cells were counted and adjusted to 5×10^3 cells/50 μl (1×10^5 cells/ml) in assay medium. A 50 μl aliquot of cells was transferred to each well in the assay plate.
4) Stocks of the test compounds and reference compounds were diluted to a concentration of 0.2 μM in assay buffer. […] Compounds were tested at the following final concentrations: 1×10^−7 M, 1×10^−8 M; 1×10^−9 M, 1×10^−10 M, 1×10^−11 M, 1×10^−12 M, 1×10^−13 M, and 1×10^−14 M. 6) The assay plate was incubated for 3 h in a 5% CO2 incubator at 37° C. […] 8) A 100 μl aliquot of steadylite plus reagent was added to each well of the assay plate. 9) Each assay plate was covered with aluminum foil to protect it from light and shaken for 30 min at room temperature. 10) Each assay plate was read in a BioTek Synergy 2 Multi-Mode Reader. Calculations and Results
The data from the BioTek Synergy 2 Multi-Mode Reader were transferred to GraphPad Prism software. The software performs a non-linear regression (log(agonist) vs. response (three parameters)).
A minimum of three replicates were measured for each sample. The reported EC50 values are averages of the measured values for each compound.

[2] = molecular target: T1, human GLP-1 receptor; assay: GLP-1 receptor binding, competitive binding assay with 125I-GLP-1 on isolated membranes (SPA)
Method: The receptor binding is reported as the concentration at which half of the labelled ligand is displaced from the receptor, the IC50 value.
Buffer 1 consisted of 20 mM Na-HEPES plus 10 mM EDTA and pH was adjusted to 7.4. Buffer 2 consisted of 20 mM Na-HEPES plus 0.1 mM EDTA and pH was adjusted to 7.4. Assay buffer consisted of 50 mM HEPES supplemented with 5 mM EGTA, 5 mM MgCl2, 0.005% w/v Tween 20 and pH was adjusted to 7.4. An 8% albumin stock consisted of HSA dissolved at 8% (w/v) in assay buffer. An 0.02% albumin stock consisted of HSA dissolved at 0.02% (w/v) in assay buffer.
To make a membrane preparation the cells were grown to approximately 80% confluence. The cells were washed twice in phosphate-buffered saline and harvested. The cells were pelleted using a brief centrifugation and the cell pellet was kept on ice. The cell pellet was homogenised with ULTRA-THURRAX™ dispersing instrument for 20-30 seconds in a suitable amount of buffer 1 (e.g., 10 ml). The homogenate was centrifuged for 15 minutes. The pellet was re-suspended (homogenised) in 10 ml buffer 2 and centrifuged. This step was repeated once more. The resulting pellet was re-suspended in buffer 2 and the protein concentration was determined. The membranes were aliquoted and stored at minus 80° C.
For the receptor binding assay in the presence of low HSA (0.005% (w/v)) 50 μl of the assay buffer was added to each well of an assay plate. Assay continued with step 3.
For the receptor binding assay in the presence of high HSA (2% (w/v)) 50 μl of the 8% (w/v) albumin stock was added to each well of an assay plate. Assay continued with step 3.
Cell membrane aliquots were thawed and diluted to their working concentration. Fifty μl were added to each well in the assay plate.
WGA SPA beads were suspended in assay buffer at 20 mg/ml. The suspension was diluted to 10 mg/ml in assay buffer just prior to addition to the assay plate. Fifty μl were added to each well in the assay plate.
A 25 μl aliquot was reserved for measuring total counts/well.
The assay plate was incubated for 2 h at 30° C.
The assay plate was centrifuged for 10 min.
The assay plate was read in a Packard TopCount NXT instrument.
Individual replicates were analysed using non-linear regression in GraphPad Prism. IC50 values were calculated by the software and reported in nM. A minimum of two replicates was measured for each sample. The reported values are averages of all of the measured values for each compound.

[3] = high HSA (2.0% (w/v) final assay concentration), read-out: GLP-1 receptor binding High HSA IC50
[4] = low HSA (max. 0.001% (w/v) final assay concentration), read-out: GLP-1 receptor binding Low HSA IC50

EC50 [1] | IC50 [2, 3] | IC50 [2, 4] | Structure (SMILES)
0.0147 nM | 35.4 nM | 0.383 nM | CC[C@H](C)[C@H](NC(=O)[C@H](Cc1ccccc1)NC(=O)[C@H](CCC(=O)O)NC(=O)[C@H](CCCNC(=N)N)NC(=O)[C@H](C)NC(=O)[C@H](C)NC(=O)[C@H](CCC(N)=O)NC(=O)[C@H](CCC(=O)O)NC(=O)[C@H](CCC(=O)O)NC(=O)[C@H](CC(C)C)NC(=O)[C@H](Cc1ccc(O)cc1)NC(=O)[C@H](CO)NC(=O)[C@H](CO)NC(=O)[C@@H](NC(=O)[C@H](CC(=O)O)NC(=O)[C@H](CO)NC(=O)[C@@H](NC(=O)[C@H](Cc1ccccc1)NC(=O)[C@@H](NC(=O)CNC(=O)[C@H](CCC(=O)O)NC(=O)C(C)(C)NC(=O)[C@@H](N)Cc1c[nH]cn1)[C@@H](C)O)[C@@H](C)O)C(C)C)C(=O)N[C@@H](C)C(=O)N[C@@H](Cc1c[nH]c2ccccc12)C(=O)N[C@@H](CC(C)C)C(=O)N[C@H](C(=O)N[C@@H](CCCNC(=N)N)C(=O)NCC(=O)N[C@@H](CCCNC(=N)N)C(=O)N[C@@H](CCCCNC(=O)COCCOCCNC(=O)COCCOCCNC(=O)CN(CCCNC(=O)COCCOCCNC(=O)COCCOCCNC(=O)COCCOCCNC(=O)COCCOCCNC(=O)CC[C@H](NC(=O)[C@H]1CC[C@H](CNC(=O)CCCCCCCCCCCCCCCCCCC(=O)O)CC1)C(=O)O)CCCNC(=O)COCCOCCNC(=O)COCCOCCNC(=O)COCCOCCNC(=O)COCCOCCNC(=O)CC[C@H](NC(=O)[C@H]1CC[C@H](CNC(=O)CCCCCCCCCCCCCCCCCCC(=O)O)CC1)C(=O)O)C(=O)O)C(C)C [Comparative 13A]
0.0081 nM | 116 nM | 0.318 nM | CC[C@H](C)[C@H](NC(=O)[C@H](Cc1ccccc1)NC(=O)[C@H](CCC(=O)O)NC(=O)[C@H](CCCNC(=N)N)NC(=O)[C@H](C)NC(=O)[C@H](C)NC(=O)[C@H](CCC(N)=O)NC(=O)[C@H](CCC(=O)O)NC(=O)[C@H](CCC(=O)O)NC(=O)[C@H](CC(C)C)NC(=O)[C@H](Cc1ccc(O)cc1)NC(=O)[C@H](CO)NC(=O)[C@H](CO)NC(=O)[C@@H](NC(=O)[C@H](CC(=O)O)NC(=O)[C@H](CO)NC(=O)[C@@H](NC(=O)[C@H](Cc1ccccc1)NC(=O)[C@@H](NC(=O)CNC(=O)[C@H](CCC(=O)O)NC(=O)C(C)(C)NC(=O)[C@@H](N)Cc1c[nH]cn1)[C@@H](C)O)[C@@H](C)O)C(C)C)C(=O)N[C@@H](C)C(=O)N[C@@H](Cc1c[nH]c2ccccc12)C(=O)N[C@@H](CC(C)C)C(=O)N[C@H](C(=O)N[C@@H](CCCNC(=N)N)C(=O)NCC(=O)N[C@@H](CCCCNC(=O)COCCOCCNC(=O)COCCOCCNC(=O)CC[C@H](NC(=O)CCCCCCCCCOc1cccc(C(=O)O)c1)C(=O)O)C(=O)N[C@@H](CCCCNC(=O)COCCOCCNC(=O)COCCOCCNC(=O)CC[C@H](NC(=O)CCCCCCCCCOc1cccc(C(=O)O)c1)C(=O)O)C(=O)O)C(C)C [Comparative 1A]
0.0056 nM | 71 nM | – | CC[C@H](C)[C@H](NC(=O)[C@H](Cc1ccccc1)NC(=O)[C@H](CCC(=O)O)NC(=O)[C@H](CCCNC(=N)N)NC(=O)[C@H](C)NC(=O)[C@H](C)NC(=O)[C@H](CCC(N)=O)NC(=O)[C@H](CCC(=O)O)NC(=O)[C@H](CCC(=O)O)NC(=O)[C@H](CC(C)C)NC(=O)[C@H](Cc1ccc(O)cc1)NC(=O)[C@H](CO)NC(=O)[C@H](CO)NC(=O)[C@@H](NC(=O)[C@H](CC(=O)O)NC(=O)[C@H](CO)NC(=O)[C@@H](NC(=O)[C@H](Cc1ccccc1)NC(=O)[C@@H](NC(=O)CNC(=O)[C@H](CCC(=O)O)NC(=O)[C@H](Cc1c[nH]c2ccccc12)NC(=O)[C@@H](N)Cc1c[nH]cn1)[C@@H](C)O)[C@@H](C)O)C(C)C)C(=O)N[C@@H](C)C(=O)N[C@@H](Cc1c[nH]c2ccccc12)C(=O)N[C@@H](CC(C)C)C(=O)N[C@H](C(=O)N[C@@H](CCCNC(=N)N)C(=O)NCC(=O)N[C@@H](CCCCNC(=O)COCCOCCNC(=O)COCCOCCNC(=O)COCCOCCNC(=O)COCCOCCNC(=O)CC[C@H](NC(=O)CCCCCCCCCCCCC(=O)O)C(=O)O)C(=O)N[C@@H](CCCCNC(=O)COCCOCCNC(=O)COCCOCCNC(=O)COCCOCCNC(=O)COCCOCCNC(=O)CC[C@H](NC(=O)CCCCCCCCCCCCC(=O)O)C(=O)O)C(=O)O)C(C)C [Example 7] (H-HWEGTFTSDVSSYLEEQAAREFIAWLVRGK([AEEA-AEEA-AEEA-AEEA-γGlu-C14 diacid])K([AEEA-AEEA-AEEA-AEEA-γGlu-C14 diacid])-OH; N-terminus and C-terminus assumed)
0.0026 nM | 31.5 nM | 0.744 nM | CC[C@H](C)[C@H](NC(=O)[C@H](Cc1ccccc1)NC(=O)[C@H](CCC(=O)O)NC(=O)[C@H](CCCNC(=N)N)NC(=O)[C@H](C)NC(=O)[C@H](C)NC(=O)[C@H](CCC(N)=O)NC(=O)[C@H](CCC(=O)O)NC(=O)[C@H](CCC(=O)O)NC(=O)[C@H](CC(C)C)NC(=O)[C@H](Cc1ccc(O)cc1)NC(=O)[C@H](CO)NC(=O)[C@H](CO)NC(=O)[C@@H](NC(=O)[C@H](CC(=O)O)NC(=O)[C@H](CO)NC(=O)[C@@H](NC(=O)[C@H](Cc1ccccc1)NC(=O)[C@@H](NC(=O)CNC(=O)[C@H](CCC(=O)O)NC(=O)C(C)(C)NC(=O)[C@@H](N)Cc1c[nH]cn1)[C@@H](C)O)[C@@H](C)O)C(C)C)C(=O)N[C@@H](C)C(=O)N[C@@H](Cc1c[nH]c2ccccc12)C(=O)N[C@@H](CC(C)C)C(=O)N[C@H](C(=O)N[C@@H](CCCNC(=N)N)C(=O)NCC(=O)N[C@@H](CCCCNC(=O)COCCOCCNC(=O)COCCOCCNC(=O)COCCOCCNC(=O)COCCOCCNC(=O)CC[C@H](NC(=O)CCCCCCCCCCCCC(=O)O)C(=O)O)C(=O)N[C@@H](CCCCNC(=O)COCCOCCNC(=O)COCCOCCNC(=O)COCCOCCNC(=O)COCCOCCNC(=O)CC[C@H](NC(=O)CCCCCCCCCCCCC(=O)O)C(=O)O)C(=O)O)C(C)C [Comparative 7A]
0.0137 nM | 42.3 nM | 0.536 nM | CC[C@H](C)[C@H](NC(=O)[C@H](Cc1ccccc1)NC(=O)[C@H](CCC(=O)O)NC(=O)[C@H](CCCNC(=N)N)NC(=O)[C@H](C)NC(=O)[C@H](C)NC(=O)[C@H](CCC(N)=O)NC(=O)[C@H](CCC(=O)O)NC(=O)[C@H](CCC(=O)O)NC(=O)[C@H](CC(C)C)NC(=O)[C@H](Cc1ccc(O)cc1)NC(=O)[C@H](CO)NC(=O)[C@H](CO)NC(=O)[C@@H](NC(=O)[C@H](CC(=O)O)NC(=O)[C@H](CO)NC(=O)[C@@H](NC(=O)[C@H](Cc1ccccc1)NC(=O)[C@@H](NC(=O)CNC(=O)[C@H](CCC(=O)O)NC(=O)C(C)(C)NC(=O)[C@@H](N)Cc1c[nH]cn1)[C@@H](C)O)[C@@H](C)O)C(C)C)C(=O)N[C@@H](C)C(=O)N[C@@H](Cc1c[nH]c2ccccc12)C(=O)N[C@@H](CC(C)C)C(=O)N[C@H](C(=O)N[C@@H](CCCNC(=N)N)C(=O)NCC(=O)N[C@@H](CCCNC(=N)N)C(=O)N[C@@H](CCCCNC(=O)COCCOCCNC(=O)COCCOCCNC(=O)[C@H](CCCCNC(=O)COCCOCCNC(=O)COCCOCCNC(=O)COCCOCCNC(=O)COCCOCCNC(=O)CC[C@H](NC(=O)[C@H]1CC[C@H](CNC(=O)CCCCCCCCCCCCCCCCCCC(=O)O)CC1)C(=O)O)NC(=O)COCCOCCNC(=O)COCCOCCNC(=O)COCCOCCNC(=O)COCCOCCNC(=O)CC[C@H](NC(=O)[C@H]1CC[C@H](CNC(=O)CCCCCCCCCCCCCCCCCCC(=O)O)CC1)C(=O)O)C(=O)O)C(C)C [Comparative 12A]
0.0168 nM | 108 nM | 0.591 nM | CC[C@H](C)[C@H](NC(=O)[C@H](Cc1ccccc1)NC(=O)[C@H](CCC(=O)O)NC(=O)[C@H](CCCNC(=N)N)NC(=O)[C@H](C)NC(=O)[C@H](C)NC(=O)[C@H](CCC(N)=O)NC(=O)[C@H](CCC(=O)O)NC(=O)[C@H](CCC(=O)O)NC(=O)[C@H](CC(C)C)NC(=O)[C@H](Cc1ccc(O)cc1)NC(=O)[C@H](CO)NC(=O)[C@H](CO)NC(=O)[C@@H](NC(=O)[C@H](CC(=O)O)NC(=O)[C@H](CO)NC(=O)[C@@H](NC(=O)[C@H](Cc1ccccc1)NC(=O)[C@@H](NC(=O)CNC(=O)[C@H](CCC(=O)O)NC(=O)C(C)(C)NC(=O)[C@@H](N)Cc1c[nH]cn1)[C@@H](C)O)[C@@H](C)O)C(C)C)C(=O)N[C@@H](C)C(=O)N[C@@H](Cc1c[nH]c2ccccc12)C(=O)N[C@@H](CC(C)C)C(=O)N[C@H](C(=O)N[C@@H](CCCNC(=N)N)C(=O)NCC(=O)N[C@@H](CCCNC(=N)N)C(=O)N[C@@H](CCCCNC(=O)[C@H](CCCCNC(=O)COCCOCCNC(=O)COCCOCCNC(=O)COCCOCCNC(=O)COCCOCCNC(=O)COCCOCCNC(=O)COCCOCCNC(=O)CC[C@H](NC(=O)[C@H]1CC[C@H](CNC(=O)CCCCCCCCCCCCCCCCCCC(=O)O)CC1)C(=O)O)NC(=O)COCCOCCNC(=O)COCCOCCNC(=O)COCCOCCNC(=O)COCCOCCNC(=O)COCCOCCNC(=O)COCCOCCNC(=O)CC[C@H](NC(=O)[C@H]1CC[C@H](CNC(=O)CCCCCCCCCCCCCCCCCCC(=O)O)CC1)C(=O)O)C(=O)O)C(C)C [Comparative 10A]

Reference: patent US10946074B2, “GLP-1 derivatives and uses thereof” (Novo Nordisk A/S, priority 2016, dated 2021)
